From US10980900B2, “Imaging of meningiomas using phenylbenzothiazole, stilbene, or biphenylalkyne derivatives” (MAYO FOUNDATION FOR MEDICAL EDUCATION AND RESEARCH, priority 2010, dated 2021)
“Also recorded” adds a separate entry of the source. One block for each compound: values may come before it.

Assays:
[1] = test system: meningiomas; test: PiB PET/CT imaging of meningiomas in patients; type: in vivo, human
From the text: (§1) An Alzheimer's imaging database of two hundred forty-one patients was reviewed. […] All patients had been imaged by at least one MRI, as well as by FDG-PET/CT and PET/CT using the compound of formula (V). MRI reports of all patients were reviewed for possible meningiomas and other tumors. […] The diagnostic confidence of the radiologists interpreting the studies varied slightly, depending on factors such as tumor location and previous imaging. […] Tumors smaller than 7 millimeters are generally considered too small to be evaluated by PET or PET/CT. This is an excepted limitation of PET or PET/CT as a modality. […] None of the meningiomas in the series would be classified as atypical or aggressive based on MRI or CT imaging. One presumed extracranial schwannoma was seen, showing mild uptake on FDG-PET/CT, but no uptake on PET/CT using the compound of formula (V).
(§2) The radiologic interpretations of MRI, CT and FDG PET/CT scans from a population of 834 people who participated in the population-based Mayo Clinic Study of Aging (MCSA) from March 2006 through September 2011 were reviewed for the presence of tumors or other brain lesions. (See, Kantarci K, Lowe V, Przybelski S A, et al., “Magnetic resonance spectroscopy, {beta}-amyloid load, and cognition in a population-based sample of cognitively normal older adults”, Neurology 2011; 77:951-8; and Roberts R O, Geda Y E, Knopman D S, et al., “The Mayo Clinic Study of Aging: design and sampling, participation, baseline measures and sample characteristics”, Neuroepidemiology 2008; 30:58-69.) Participants were randomly selected for recruitment in the MCSA from a population of older adult residents of Olmsted County, Minn., USA. Those with neurological, psychological or systemic illnesses were not excluded. Individuals with dementia, or those unable to be imaged for medical reasons were excluded. All patients were imaged with C11-PiB PET/CT, F18-FDG PET/CT and non-contrast MRI at least once as part of the study. Any additional patient imaging and clinical history was then reviewed.
Tumors found in any of the subjects were then categorized as possible meningiomas or non-meningiomas based on the reading of the reporting neuroradiologist. Possible meningiomas were further reviewed as a group. A more strict set of criteria were applied to select a subset of the possible meningiomas that were designated “high-likelihood meningiomas” for further analysis and were defined by (1) tumors that were confirmed to be enhancing on diagnostic MRI (obtained separately for clinical purposes) and (2) tumors that had greater than two years of follow-up imaging confirming no growth or slow growth (1-2 mm per year). When the lead diagnosis of the identified tumor was metastasis, the diagnosis was confirmed by biopsy or autopsy. All tumors smaller than 5 mm thick were excluded, given they fall below the generally accepted lower limits of PET/CT resolution.
PET imaging was performed as part of the Mayo Clinic Study of Aging as previously described. (See Kantarci K, Lowe V, Przybelski S A, et al., “Magnetic resonance spectroscopy, {beta}-amyloid load, and cognition in a population-based sample of cognitively normal older adults”, Neurology 2011; 77:951-8.) PiB PET/CT, then FDG PET/CT were performed on the same day. PET/CT imaging was performed on a 690XT or DRX PET/CT tomograph (GE Healthcare). The PET sinograms were reconstructed using a fully-3D OSEM algorithm into a 30 cm field of view; the pixel size was 1.2 mm and the slice thickness was 3.27 mm (DRX) or 1.96 mm (690XT). CT imaging was obtained immediately prior to PET acquisition and used for attenuation correction. Cerebral PiB retention, a marker of amyloid deposition, was measured as previously described. (See Kantarci K, Lowe V, Przybelski S A, et al. “Magnetic resonance spectroscopy, {beta}-amyloid load, and cognition in a population-based sample of cognitively normal older adults”, Neurology 2011; 77:951-8.) […]

[2] = test system: meningioma tissue sections; test: Fluorescent PiB / 6-CN-PiB staining of meningioma tissue sections; type: binding, human
From the text: (§3) The Department of Pathology, Mayo Clinic Rochester Tumor Tissue Registry, contains tumor samples procured by autopsy and surgery. Meningiomas, brain metastases and other tumors were identified by searching CoPath, a Mayo Clinic electronic pathology database of tumors collected since 1982. Tumor type was confirmed by viewing H&E stained slides under a light microscope.
Fresh cut 5 μm thick sections were used. Each staining run included normal brain and Alzheimer diseased brain as controls. Fluorescent tissue staining and microscopy was performed similar to methods previously described at Ikonomovic M D, Klunk W E, Abrahamson E E, et al., “Post-mortem correlates of in vivo PiB-PET amyloid imaging in a typical case of Alzheimer's disease”, Brain: A Journal Of Neurology 2008; 131:1630-45. Meningioma and other brain tumor sections were stained with 100 nM CN-PiB, 100 nM of unlabeled PiB or with saline alone as a negative control. The staining protocol was as follows: deparaffinization and rehydration, 0.25% KMnO4 incubation, water wash, 1% K2S2O5/1% Oxalic Acid incubation, water wash, PBS wash, 6-CN-PiB/PiB/saline incubation, PBS wash, NaCl, K2HPO4, and KH2PO4 incubation, water wash, mount coverslip, and storage at 4° C. in the dark until imaged. Slides were imaged within five days of staining.
Tissue stain images were obtained on a Zeiss 510 confocal microscope with excitation at 405 nm, a 420-480 bandpass filter, and the laser set at 15% power. Images were obtained with a C-Apochromat 40×/1.2 W lens.

[3] = PiB PET/CT activity in normal tissues near the tumors; type: in vivo, human
From the text: as §2
PET imaging was performed as part of the Mayo Clinic Study of Aging as previously described. (See Kantarci K, Lowe V, Przybelski S A, et al., “Magnetic resonance spectroscopy, {beta}-amyloid load, and cognition in a population-based sample of cognitively normal older adults”, Neurology 2011; 77:951-8.) PiB PET/CT, then FDG PET/CT were performed on the same day. PET/CT imaging was performed on a 690XT or DRX PET/CT tomograph (GE Healthcare). The PET sinograms were reconstructed using a fully-3D OSEM algorithm into a 30 cm field of view; the pixel size was 1.2 mm and the slice thickness was 3.27 mm (DRX) or 1.96 mm (690XT). CT imaging was obtained immediately prior to PET acquisition and used for attenuation correction. Cerebral PiB retention, a marker of amyloid deposition, was measured as previously described. […]

[4] = test system: non-meningioma tumors and lesions; test: PiB PET/CT imaging of non-meningioma tumors and lesions in patients; type: in vivo, human
From the text: as §1, §2
Tumors found in any of the subjects were then categorized as possible meningiomas or non-meningiomas based on the reading of the reporting neuroradiologist. Possible meningiomas were further reviewed as a group. […]
PET imaging was performed as part of the Mayo Clinic Study of Aging as previously described. […] Cerebral PiB retention, a marker of amyloid deposition, was measured as previously described. […]

[5] = test system: other intracranial tumors (schwannoma, metastasis) tissue sections; test: Fluorescent 6-CN-PiB staining of other intracranial tumor tissue sections; type: binding, human; details: some other tumors, different staining pattern
From the text: as §3
Fresh cut 5 μm thick sections were used. Each staining run included normal brain and Alzheimer diseased brain as controls. Fluorescent tissue staining and microscopy was performed similar to methods previously described at Ikonomovic M D, Klunk W E, Abrahamson E E, et al., “Post-mortem correlates of in vivo PiB-PET amyloid imaging in a typical case of Alzheimer's disease”, Brain: A Journal Of Neurology 2008; 131:1630-45. Meningioma and other brain tumor sections were stained with 100 nM CN-PiB, 100 nM of unlabeled PiB or with saline alone as a negative control. The staining protocol was as follows: deparaffinization and rehydration, 0.25% KMnO4 incubation, water wash, 1% K2S2O5/1% Oxalic Acid incubation, water wash, PBS wash, 6-CN-PiB/PiB/saline incubation, PBS wash, NaCl, K2HPO4, and KH2PO4 incubation, water wash, mount coverslip, and storage at 4° C. in the dark until imaged. Slides were imaged within five days of staining. […]

[6] = test system: non-meningioma tumors; test: FDG PET/CT imaging of non-meningioma tumors in patients; type: in vivo, human
From the text: (§4) An Alzheimer's imaging database of two hundred forty-one patients was reviewed. […] MRI reports of all patients were reviewed for possible meningiomas and other tumors. […] Tumors smaller than 7 millimeters are generally considered too small to be evaluated by PET or PET/CT.
as §2
(§5) PET imaging was performed as part of the Mayo Clinic Study of Aging as previously described. (See Kantarci K, Lowe V, Przybelski S A, et al., “Magnetic resonance spectroscopy, {beta}-amyloid load, and cognition in a population-based sample of cognitively normal older adults”, Neurology 2011; 77:951-8.) PiB PET/CT, then FDG PET/CT were performed on the same day. PET/CT imaging was performed on a 690XT or DRX PET/CT tomograph (GE Healthcare). […] Cerebral PiB retention, a marker of amyloid deposition, was measured as previously described. […]

[7] = test system: meningiomas; test: FDG PET/CT imaging of meningiomas in patients; type: in vivo, human
From the text: as §4, §2, §5

[8] = meningiomas 5 mm and thicker vs all other tumors in the 834 patient population

Compound: [11CH3]Nc1ccc(-c2nc3ccc(O)cc3s2)cc1 [Formula (V), [N-Methyl-^11C]2-(4′-methylaminophenyl)-6-hydroxybenzothiazole]
SUVmax (by body weight), range ([1]; 16 high-likelihood meningiomas, PiB PET/CT): 1.4-3.6
result on repeat PET/CT imaging ([1]; Example 3: one patient imaged two times, many months in between): same positive results
activity at the meningioma on PET and CT images ([1]; Patient #1, mass along right tentorium cerebelli (FIG. 1)): intense activity
activity at the meningioma on PET and CT images ([1]; Patient #4, mass along tuberculum sellae and planum sphenoidale (FIG. 2)): intense activity
result on PiB PET/CT imaging ([1]; all 16 high-likelihood meningiomas): clearly diagnostically positive
PiB activity relative to normal adjacent tissues ([1]; all 16 meningiomas identified by strict imaging criteria): greater than normal adjacent tissues
sensitivity of PiB PET/CT for meningiomas [1, 8]: 100%
specificity of PiB PET/CT for meningiomas [1, 8]: 100%
SUVmax of meningioma on repeat imaging ([1]; two patients imaged with PiB PET/CT more than once): stable or increasing
staining of tissue sections ([2]; tissue sections from meningiomas, 100 nM unlabeled PiB): brightly positive
average PiB activity, SUVmax ([3]; nearby normal bone): 0.6
average PiB activity, SUVmax ([3]; nearby normal grey matter): 1.1
average background PiB activity, SUVmax ([3]; surrounding cerebrospinal fluid): 0.2
PiB activity relative to normal adjacent tissue ([4]; all other intracranial tumors imaged (metastases, pituitary macroadenomas, schwannomas, ependymoma)): equal or less than normal adjacent tissue
result on PiB PET/CT ([4]; both intracranial metastases (FIG. 4), pathologically confirmed): negative
result on research PiB PET/CT ([4]; melanoma metastasis case): negative
PiB activity ([4]; non-tumorous lesions (strokes, arachnoid cysts, multiple sclerosis lesions)): only trace

6-CN-PiB binding [5]: Moderate
Compound: CNc1ccc(-c2nc3ccc(C#N)cc3s2)cc1 [Formula 6-CN-PiB]
fluorescent staining ([2]; WHO grade I meningothelial meningioma (FIG. 6 Panel D), 100 nM): positively; also recorded: intense fluorescence
staining brightness vs other intracranial tumors ([2]; all meningiomas (n=7) vs other intracranial tumors (n=6)): qualitatively brighter

Compound: Fluorodeoxyglucose [FDG]
FDG PET activity ([6]; melanoma and small cell lung cancer metastases (FIG. 4)): increased
result on FDG PET/CT ([6]; melanoma metastasis case, initial imaging): positive
result on FDG PET/CT ([6]; pituitary macroadenoma (FIG. 5 Panel B)): positive
FDG activity ([7]; 2.6 cm thick meningioma of right tentorium (FIG. 3)): only trace
FDG PET activity ([7]; meningioma in FIG. 4 panels G-I): increased
FDG activity ([7]; seven of the 16 high-likelihood meningiomas): moderate to high
